Results on ten compounds are retold here after ChEMBL document CHEMBL1134079, “Synthesis and pharmacological evaluation of 2,5-cycloamino-5H-[1]benzopyrano[4,3-d]pyrimidines endowed with in vitro antiplatelet activity” (Bioorg Med Chem Lett, 2001).

Common to all, as to type: functional
For assay [1], the species on record is Cavia porcellus. Kind of assay: Evaluated for in vitro antiplatelet activity against guinea pig platelet rich plasma aggregated by arachidonic acid (AA).
The species named for assay [2] is Cavia porcellus. The experiment in a line: In vitro antiplatelet activity against guinea pig platelet rich plasma aggregated by collagen.
For assay [3], the species on record is Cavia porcellus. The experiment in a line: Evaluated for in vitro antiplatelet activity against guinea pig platelet rich plasma aggregated by […] (ADP).

For the compound `c1ccc2c(c1)OC(N1CCOCC1)c1cnc(N3CCOCC3)nc1-2` (stereo not given), the IC50 is 95 µM in the assay filed under Cavia porcellus [1] (read-out: IC50) and 60 µM in the assay filed under Cavia porcellus [2] (read-out: IC50).
Consider `Nc1ncc2c(n1)-c1ccccc1OC2N1CCCC1` (stereo not given), for which the results for the IC50 in the assay filed under Cavia porcellus [3] and in the assay filed under Cavia porcellus [1] (read-out: IC50) were 750 µM and 400 µM, respectively.
Consider `c1ccc2c(c1)OC(N1CCOCC1)c1cnc(N3CCCCC3)nc1-2` (stereo not given), for which the half-inhibitory concentration (IC50) in the assay listed under Cavia porcellus [1] (read-out: IC50) came out at 25 µM; in the assay filed under Cavia porcellus [2] (read-out: IC50), 60 µM.
Consider `c1ccc2c(c1)OC(N1CCOCC1)c1cnc(N3CCCC3)nc1-2` (stereo not given), for which the half-maximal inhibitory concentration (IC50) in the assay listed under Cavia porcellus [1] (read-out: IC50) stood at 75 µM; in the assay filed under Cavia porcellus [2] (read-out: IC50), 50 µM.
Take `c1ccc2c(c1)OC(N1CCCC1)c1cnc(N3CCCC3)nc1-2` (stereo not given): the IC50 in the assay listed under Cavia porcellus [3] was 200 µM; in the assay listed under Cavia porcellus [1] (read-out: IC50), 80 µM; in the assay filed under Cavia porcellus [2] (read-out: IC50) it was 170 µM.
With `CSc1ncc2c(n1)-c1ccccc1OC2N1CCCC1` (stereo not given), the IC50 in the assay filed under Cavia porcellus [3] was 180 µM; in the assay filed under Cavia porcellus [1] (read-out: IC50), 85 µM.
Regarding `CC(=O)Oc1ccccc1C(=O)O` [ASPIRIN], the values for the IC50 in the assay listed under Cavia porcellus [1] and in the assay listed under Cavia porcellus [2] were 61 µM and 48 µM, respectively.
Turning to `c1ccc2c(c1)OC(N1CCCCC1)c1cnc(N3CCCC3)nc1-2` (stereo not given), in the assay filed under Cavia porcellus [1] (read-out: IC50), the concentration for half-maximal inhibition (IC50) came to 90 µM.
In the case of `c1ccc2c(c1)OC(N1CCCC1)c1cnc(N3CCOCC3)nc1-2` (stereo not given), the IC50 in the assay filed under Cavia porcellus [3] amounted to 250 µM; in the assay filed under Cavia porcellus [1] (read-out: IC50), 430 µM; in the assay listed under Cavia porcellus [2] (read-out: IC50), 80 µM.
For `c1ccc2c(c1)OC(N1CCCCC1)c1cnc(N3CCOCC3)nc1-2` (stereo not given), the IC50 in the assay filed under Cavia porcellus [2] (read-out: IC50) is 200 µM.
